pIC50: −log10 of the molar value.
Key:
[1] = target: T1, cytosolic aminopeptidase (cAAP) purified from Jurkat cells (Homo sapiens, UniProt P55786); assay: Inhibition of enzymatic activity of cytosolic aminopeptidase (cAAP); assay type: biochemical; settings: highest test item concentration 25 μM; for pIC50: read-out: meas. IC50 (cAAP)
T1 construct: The cytosolic aminopeptidase (cAAP) was purified from Jurkat cells; endogenous in cells; host or cells: Jurkat cells (enzyme purified from them)

SZ95 cells = assay: Inhibition of DNA synthesis and proliferation of immortalized human sebocytes SZ95; assay type: cell-based; settings: Homo sapiens, EGF-stimulated SZ95 sebocytes, tritium thymidine incorporation; read-out: Supp. DNA Synt. SZ95 IC50
Experimental: The immortalized human sebocyte line SZ95 was provided by Prof. C Zouboulis [C C Zouboulis, H Seltmann, H Neitzel, C E Orfanos, Establishment and characterization of an immortalized human sebaceous gland cell line (SZ95). J. Invest. Dermatol. 113(6):1011-1020 (1999), the entire disclosure of which is incorporated by reference herein]. These adherent growing cells were cultured in serum-free Sebomed Complete (Biochrom). Recombinant EGF was added in order to stimulate DNA synthesis and proliferation of the SZ95 cells. Test items were added in concentrations from 0.1 up to 100 μM.
The DNA synthesis of proliferating cells was detected by incorporation of radiolabelled tritium thymidine (3HT) and counting at a beta counter. Based on these raw data the relative proliferation response in relation to cells cultured in the absence of test compound (100% control) was calculated. IC50 values of proliferation suppression were assessed by computer-assisted graphical evaluation.

NHEK cells = assay: Inhibition of DNA synthesis and proliferation of normal human epidermal keratinocytes (NHEK); assay type: cell-based; settings: Homo sapiens, NHEK, 48 h, EGF-stimulated NHEK, BrdU incorporation, read-out: Supp. DNA Synt. NHEK IC50
Experimental: NHEK cells (primary cells from person) were purchased from PromoCell. For these assay the adherent cells were cultured in serum-free Keratinocyte Growth medium 2 supplemented with epidermal growth factor (EGF) and bovine pituitary extract for 48 hours in flat-bottom microtiter plates. EGF stimulates the DNA synthesis and proliferation of these cells. Test items were added in concentrations from 0.1 up to 100 μM.
The DNA synthesis was assessed by incorporation of bromdesoxyuridine (BrdU) and subsequent detection of BrdU by ELISA technique. Based on these raw data the relative proliferation response in relation to cells cultured in the absence of test compound (100% control) was calculated. IC50 values of proliferation suppression were assessed by computer-assisted graphical evaluation.

[2] = target: T2, aminopeptidase N (APN), purified recombinant human enzyme (Homo sapiens, UniProt P15144); assay: Inhibition of enzymatic activity of aminopeptidase N (fluorogenic substrate hydrolysis); assay type: biochemical; settings: highest test item concentration 25 μM; for pIC50: read-out: meas. IC50 (APN)
T2 construct: made in house; host or cells: ECV cells (transfected)
Experimental: The inhibition of the enzymatic activity of aminopeptidase N (APN) was measured by using purified, recombinant human enzyme (purified from transfected ECV cells, final enzyme concentration approx. 1 nM). […] The assay was performed in 0.05M TRIS/HCl puffer pH 7.5, supplemented with 0.05% Triton (v/v), 0.05% BSA (w/v), 2 mM MgCl2.
The aminopeptidase acitivities wer assessed by the hydrolysis of the fluorogenic substrates H-Ala-4-amino-7-methyl coumarine (abbreviation of fluorogenic group AMC; purchased from Bachem) or (Ala-)2-Rhodamine 110 (abbreviation R110). The final substrate concentrations were again 50 and 1 μM, respectively.
(§1) The assay was performed in white microtitre plates for fluorescence measurements. The test items, substrate and enzyme were diluted in assay buffer. The highest test item concentration used was 25 μM. For the calculation of IC50 values, at least 16 log 2-dilutions of each test item were analyzed. As controls, the DPIV activity in the absence of test items as well as the spontaneous hydrolysis of the substrate was determined.
The release of the fluorescent hydrolysis products AMC and R110 was measured as described above for DPIV substrates.

[3] = test system: purified, recombinant DP8 and DP9; assay: Inhibition of enzymatic activity of DP8/9; assay type: biochemical; settings: highest test item concentration 25 μM; for pIC50: read-out: meas. IC50 (DP8/9)
Experimental: (§2) The inhibition of the enzymatic activity of DPIV and related enzymes was measured by using purified, recombinant human DPIV (purified from transfected Sf9 cells, final enzyme concentration approx. 1 nM) as well as purified, recombinant DP8 and DP9 (purchased from Biomol). The assay was performed in 0.05M TRIS/HCl puffer pH 7.5, supplemented with 0.05% Triton (v/v), 0.05% BSA (w/v), 2 mM MgCl2.
(§3) The enzymatic activity of DPIV was assessed by the hydrolysis of the fluorogenic substrates H-Gly-Pro-4-amino-7-methyl coumarine (abbreviation of fluorogenic group AMC; purchased from Bachem) or (Ala-Pro)2-Rhodamine 110 (abbreviation R110). The final substrate concentrations were 50 μM or 1 μM, respectively.
as §1
(§4) The release of the fluorescent hydrolysis product AMC was measured at an excitation wavelength of 380 nm and an emission wavelength of 460 nm by using a microtitre fluorescence reader immediately after substrate addition as well as after 30, 60 and 120 min. The hydrolysis of the substrate (Ala-Pro)2-Rhodamine 110 was determined at an exitation wavelength of 488 nm and emission wavelength of 530 nm.

T lymphocytes (T cells) = assay: Suppression of DNA synthesis of PHA-stimulated T lymphocytes; assay type: cell-based; settings: Homo sapiens, T-cell, 48 h, tritium thymidine incorporation, read-out: Supp. DNA Synt. T-cell IC50
Experimental: Peripheral blood mononuclear cells (PBMC) from healthy human volunteers were freshly isolated by density gradient centrifugation. T lymphocytes (T cells) were isolated from PBMC fractions via nylon wool adherence. Both cell populations were cultured in serum free lymphocyte medium (AIMV medium, Invitrogen) and stimulated by addition of 1 μg/ml Phytohemagglutinine for 48 hours in 96 well flat-bottom microtiter plates. Test compounds were added at concentration ranges from 0.1 up to 250 μM over the total assay period.
DNA synthesis of proliferating PBMC was assessed by incorporation of nucleotide analogue bromdesoxyuridine (BrdU) and subsequent detection of BrdU by ELISA technique (Cell Proliferation Biotrak™ ELISA system, GE Health Care) according to the protocol of the manufacturer. DNA synthesis of proliferating T cells was determined by incorporation of radio labelled tritium thymidine and subsequent radio detection.
Data output was based on raw data and calculation of relative proliferation response in relation to PHA-activated T cells in the absence of test compound (100% control). The IC50 value of proliferation suppression was assessed by graphical evaluation.

[4] = target: T3, purified, recombinant human DPIV (Homo sapiens, UniProt P27487); assay: Inhibition of enzymatic activity of DPIV (fluorogenic substrate hydrolysis); assay type: biochemical; settings: highest test item concentration 25 μM; for pIC50: read-out: meas. IC50 (DPIV)
T3 construct: made in house; host or cells: Sf9 insect cells
Experimental: as §2, §3, §1, §4

T1 sequence (P55786 whole entry): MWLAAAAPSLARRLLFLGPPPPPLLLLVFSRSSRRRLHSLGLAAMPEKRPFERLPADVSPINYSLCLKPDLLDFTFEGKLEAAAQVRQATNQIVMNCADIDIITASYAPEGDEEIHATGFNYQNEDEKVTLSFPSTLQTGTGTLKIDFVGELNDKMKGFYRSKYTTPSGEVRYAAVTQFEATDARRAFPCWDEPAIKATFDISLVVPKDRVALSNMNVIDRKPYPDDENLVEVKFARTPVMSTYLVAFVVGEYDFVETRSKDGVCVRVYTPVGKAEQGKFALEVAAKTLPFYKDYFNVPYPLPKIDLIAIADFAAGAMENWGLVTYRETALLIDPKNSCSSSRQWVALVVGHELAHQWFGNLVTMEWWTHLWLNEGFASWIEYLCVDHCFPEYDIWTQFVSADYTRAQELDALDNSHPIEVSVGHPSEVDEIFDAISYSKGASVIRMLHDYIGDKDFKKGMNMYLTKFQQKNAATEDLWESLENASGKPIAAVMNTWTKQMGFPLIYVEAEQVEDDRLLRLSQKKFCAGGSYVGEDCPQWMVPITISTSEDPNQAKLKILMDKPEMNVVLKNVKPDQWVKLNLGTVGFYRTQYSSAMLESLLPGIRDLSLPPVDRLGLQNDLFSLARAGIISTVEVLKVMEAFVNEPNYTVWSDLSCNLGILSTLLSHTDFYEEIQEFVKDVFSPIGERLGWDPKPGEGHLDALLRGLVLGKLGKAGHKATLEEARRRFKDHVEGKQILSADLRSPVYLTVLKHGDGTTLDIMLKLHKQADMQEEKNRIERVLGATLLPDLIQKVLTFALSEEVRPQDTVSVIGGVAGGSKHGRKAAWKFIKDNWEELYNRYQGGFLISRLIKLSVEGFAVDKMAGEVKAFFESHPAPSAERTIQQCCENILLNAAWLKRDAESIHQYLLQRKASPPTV
T3 sequence (P27487 whole entry): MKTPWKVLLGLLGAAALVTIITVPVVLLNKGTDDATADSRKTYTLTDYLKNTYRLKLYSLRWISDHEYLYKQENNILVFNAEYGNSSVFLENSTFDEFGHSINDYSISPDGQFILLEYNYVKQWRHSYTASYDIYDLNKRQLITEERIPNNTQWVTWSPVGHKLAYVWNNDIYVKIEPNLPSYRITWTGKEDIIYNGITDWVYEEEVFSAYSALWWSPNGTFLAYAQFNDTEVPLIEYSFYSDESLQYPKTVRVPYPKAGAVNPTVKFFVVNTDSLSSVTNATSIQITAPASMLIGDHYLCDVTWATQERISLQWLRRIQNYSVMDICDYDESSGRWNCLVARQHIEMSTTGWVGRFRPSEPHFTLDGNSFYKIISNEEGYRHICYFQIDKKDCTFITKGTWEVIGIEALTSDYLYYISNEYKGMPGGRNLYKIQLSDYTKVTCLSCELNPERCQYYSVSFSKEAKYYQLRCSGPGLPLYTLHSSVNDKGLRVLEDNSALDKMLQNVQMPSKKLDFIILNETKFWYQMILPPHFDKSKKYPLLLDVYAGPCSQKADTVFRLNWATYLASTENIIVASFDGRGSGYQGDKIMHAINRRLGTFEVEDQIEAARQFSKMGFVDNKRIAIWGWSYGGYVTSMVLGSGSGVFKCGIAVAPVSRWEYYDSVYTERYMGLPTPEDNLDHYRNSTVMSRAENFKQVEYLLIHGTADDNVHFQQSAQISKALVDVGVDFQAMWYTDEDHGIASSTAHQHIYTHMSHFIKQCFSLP
T2 sequence (P15144 whole entry): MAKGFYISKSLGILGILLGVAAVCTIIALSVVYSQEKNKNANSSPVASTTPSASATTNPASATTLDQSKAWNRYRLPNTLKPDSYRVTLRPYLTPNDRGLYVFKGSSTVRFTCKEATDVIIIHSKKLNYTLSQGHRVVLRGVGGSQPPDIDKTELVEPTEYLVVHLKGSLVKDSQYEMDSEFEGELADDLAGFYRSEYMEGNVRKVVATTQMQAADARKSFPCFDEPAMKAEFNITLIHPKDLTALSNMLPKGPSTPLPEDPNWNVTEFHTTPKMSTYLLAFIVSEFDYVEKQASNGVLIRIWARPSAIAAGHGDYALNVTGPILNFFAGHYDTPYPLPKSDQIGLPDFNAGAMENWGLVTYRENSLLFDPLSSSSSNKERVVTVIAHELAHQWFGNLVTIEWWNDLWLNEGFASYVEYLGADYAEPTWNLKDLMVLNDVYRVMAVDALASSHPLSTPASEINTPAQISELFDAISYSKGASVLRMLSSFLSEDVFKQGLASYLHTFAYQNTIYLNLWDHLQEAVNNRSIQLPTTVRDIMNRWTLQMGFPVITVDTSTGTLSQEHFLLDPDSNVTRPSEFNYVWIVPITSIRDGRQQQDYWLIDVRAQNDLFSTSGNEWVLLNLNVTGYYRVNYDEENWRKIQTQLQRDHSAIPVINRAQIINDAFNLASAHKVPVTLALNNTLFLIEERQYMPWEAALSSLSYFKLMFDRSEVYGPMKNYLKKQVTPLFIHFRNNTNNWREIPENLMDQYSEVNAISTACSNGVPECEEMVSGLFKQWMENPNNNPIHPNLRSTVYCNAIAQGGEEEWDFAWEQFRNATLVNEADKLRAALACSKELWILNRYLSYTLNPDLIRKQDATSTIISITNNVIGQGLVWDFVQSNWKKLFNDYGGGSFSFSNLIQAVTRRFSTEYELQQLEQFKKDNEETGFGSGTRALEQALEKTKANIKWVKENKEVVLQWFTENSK

SMILES | pIC50 [1] | pIC50 (SZ95 cells) | pIC50 (NHEK cells) | meas. IC50 (APN) [2] | meas. IC50 (DP8/9) [3] | pIC50 (T lymphocytes (T cells)) | meas. IC50 (DPIV) [4] | pIC50 [3] | meas. IC50 (cAAP) [1] | pIC50 [2] | pIC50 [4]
CCCC(=O)OC(C(=O)Nc1cccc(C(=O)NCC(Cc2cc(F)ccc2F)NC(=O)OC(C)(C)C)c1)C(COCc1ccccc1)NC(=O)OC(C)(C)C (stereo not shown) [Compound C19.005] | 5.24 | 4.97 | 5.44 | no in- hibition | no in- hibition | 4.94 | no in- hibition |  |  |  | 
CC(C)(CNC(=O)CC(N)Cc1cc(F)ccc1F)CNC(=O)C(O)C(N)COCc1ccccc1 (stereo not shown) [Compound C19.001] |  |  |  |  |  |  |  | 5.90 |  |  | 
CC(C)(C)OC(=O)NC(CCCCNC(=O)C(S)C(Cc1ccccc1)NC(=O)OC(C)(C)C)C(=O)N1CCSC1 (stereo not shown) [Compound C22.002] | 6.00 | ≤ 3.70 | 4.07 | no in- hibition | no in- hibition | 4.27 | no in- hibition |  |  |  | 
CC(C)(CNC(=O)CC(N)Cc1cc(F)ccc1F)CNC(=O)C(O)C(N)COCc1ccccc1 (stereo not shown) [Compound C19.020] |  |  |  |  |  |  |  | 5.92 |  |  | 
COc1ccc(COCC(NC(=O)C(C)(C)C)C(OCc2ccc(OC)cc2)C(=O)NCC(C)(C)CNC(=O)CC(Cc2cc(F)ccc2F)NC(=O)C(C)(C)C)cc1 (stereo not shown) [Compound C19.018] |  | 5.04 | 5.00 | no in- hibition | no in- hibition | 5.48 | no in- hibition |  | no in- hibition |  | 
CC(C)(C)OC(=O)NC(CCCCNS(=O)(=O)c1cccc(NC(=O)C(O)C(Cc2ccccc2)NC(=O)OC(C)(C)C)c1)C(=O)N1CCSC1 (stereo not shown) [Compound C21.005] |  |  | 4.82 | no in- hibition | no in- hibition | 4.94 | no in- hibition |  | no in- hibition |  | 
NC(CNC(=O)CCCNC(=O)C(O)C(N)Cc1ccccc1)Cc1cc(F)ccc1F (stereo not shown) [Compound C26.005] | 6.89 |  | 4.54 |  |  | 4.56 | no in- hibition |  |  | 7.05 | 
CC(C)(CNC(=O)CC(N)Cc1cc(F)ccc1F)CNC(=O)C(O)C(N)Cn1cnc2cncnc21 (stereo not shown) [Compound C18.001] | 6.00 | ≤ 3.81 |  |  |  | 4.53 |  | 4.80 |  | 6.04 | 6.61
NC(CNS(=O)(=O)CCCNC(=O)C(O)C(N)Cc1ccccc1)Cc1cc(F)ccc1F (stereo not shown) [Compound C26.001] | 7.05 |  | ≤ 3.87 |  |  | 3.70 |  | 5.13 |  | 7.15 | 6.24
CCOC(=O)C(O[Si](C)(C)C(C)(C)C)C(Cc1ccc(-c2cccnc2)cc1)NC(=O)OCc1ccccc1 (stereo not shown) [Compound C26.006] |  | 5.10 | 5.72 | no in- hibition |  | 5.42 | no in- hibition |  | no in- hibition |  | 
CC(C)(C)OC(=O)NC(CNC(=O)c1cccc(NC(=O)C(O)C(N)Cc2ccc(-c3cccnc3)cc2)c1)Cc1cc(F)ccc1F (stereo not shown) [Compound C-125] | 8.30 | 4.86 | 5.36 |  |  | 4.89 | no in- hibition |  |  | 7.03 | 
NC(Cc1cc(F)ccc1F)CS(=O)(=O)NCCCCNC(=O)C(O)C(N)Cc1ccccc1 (stereo not shown) [Compound C26.007] |  | 5.14 |  | no in- hibition |  | 5.46 | no in- hibition |  |  |  | 
NC(CNC(=O)CCCNC(=O)C(O)C(N)Cc1ccccc1)Cc1cc(F)ccc1F (stereo not shown) [Compound C26.008] |  |  |  |  |  |  |  |  |  | 8.00 | 6.05
CC(C)(CNC(=O)CC(N)Cc1cc(F)ccc1F)CNC(=O)C(O)C(N)CO (stereo not shown) [Compound C19.003] | 6.43 | 4.09 |  |  |  | 4.09 |  | 5.42 |  | 6.04 | 6.48
CC(=O)NC(Cc1ccccc1)C(O)C(=O)NCCCS(=O)(=O)NCC(N)Cc1cc(F)ccc1F (stereo not shown) [Compound C26.003] | 6.60 |  | ≤ 3.78 |  | no in- hibition | 4.15 |  |  |  | 6.72 | 6.44
CC(C)(C)OC(=O)NC(CNS(=O)(=O)CCCNC(=O)C(O)C(Cc1ccccc1)NC(=O)OC(C)(C)C)Cc1cc(F)ccc1F (stereo not shown) [Compound C26.002] |  |  | 4.74 | no in- hibition | no in- hibition | 3.70 |  |  | no in- hibition |  | 5.19
CC(C)(CNC(=O)CC(N)Cc1cc(F)ccc1F)CNC(=O)C(O)C(N)COCc1ccccc1 (stereo not shown) [Compound C19.022] |  |  |  |  |  |  |  | 5.92 |  |  | 
CC(C)(C)OC(=O)NC(CNC(=O)CCCNC(=O)C(O)C(Cc1ccccc1)NC(=O)OC(C)(C)C)Cc1cc(F)ccc1F (stereo not shown) [Compound C26.009] |  |  |  | no in- hibition |  |  | no in- hibition |  |  |  | 
NC(CCCCNS(=O)(=O)c1cccc(NC(=O)C(O)C(N)Cc2ccccc2)c1)C(=O)N1CCSC1 (stereo not shown) [Compound C21.006] | 6.92 |  | 4.18 |  |  | 3.80 |  | 6.96 |  | 6.05 | 7.30
CC(=O)NC(Cc1ccccc1)C(O)C(=O)NCCCS(=O)(=O)NCC(Cc1cc(F)ccc1F)NC(=O)OC(C)(C)C (stereo not shown) [Compound C26.004] |  |  | ≤ 3.98 | no in- hibition | no in- hibition | 4.15 | no in- hibition |  | no in- hibition |  | 

— patent US20120028995A1, “NOVEL COMPOUNDS FOR MEDICAL USE AS PEPTIDASE EFFECTORS” (IMTM GMBH, priority 2010, published 2012)
